Experimental data reported in PubChem BioAssay AID248 (DTP/NCI, 2004).
“And” between values parts separate entries of the source, which are not always exact repeats. Identical values can stand only once. Inconclusive results and toxic doses are left out.

System: L1210 leukemia ip in BDF1 mice, survival T/C
Assay: NCI In Vivo Anticancer Drug Screen. Data for tumor model L1210 Leukemia (intraperitoneal) in B6D2F1 (BDF1) mice
Settings: endpoint: mean survival time, higher = longer survival
Outline: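 Each compound was tested against a transplantable tumor grown in mice. The endpoint was survival, with treated animals benchmarked against vehicle controls as a simple ratio.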

[1] = dose: 100.0 mg/kg/injection, schedule: Q04DX003 (ip), vehicle: saline with Tween-80
[2] = dose: 200.0 mg/kg/injection, schedule: Q04DX003 (ip), vehicle: saline with Tween-80
[3] = dose: 400.0 mg/kg/injection, schedule: Q04DX003 (ip), vehicle: saline with Tween-80
[4] = dose: 50.0 mg/kg/injection, schedule: Q01DX001 (ip), vehicle: carboxymethylcellulose (CMC)
[5] = dose: 100.0 mg/kg/injection, schedule: Q01DX001 (ip), vehicle: carboxymethylcellulose (CMC)
[6] = dose: 200.0 mg/kg/injection, schedule: Q01DX001 (ip), vehicle: carboxymethylcellulose (CMC)
[7] = dose: 12.5 mg/kg/injection, schedule: Q04DX003 (ip), vehicle: saline
[8] = dose: 25.0 mg/kg/injection, schedule: Q04DX003 (ip), vehicle: saline
[9] = dose: 50.0 mg/kg/injection, schedule: Q04DX003 (ip), vehicle: saline
[10] = dose: 200.0 mg/kg/injection, schedule: Q01DX009 (ip), vehicle: saline with Tween-80
[11] = dose: 400.0 mg/kg/injection, schedule: Q01DX009 (ip), vehicle: saline with Tween-80
[12] = dose: 100.0 mg/kg/injection, schedule: Q01DX001 (ip), vehicle: saline
[13] = dose: 200.0 mg/kg/injection, schedule: Q01DX001 (ip), vehicle: saline
[14] = dose: 400.0 mg/kg/injection, schedule: Q01DX001 (ip), vehicle: saline
[15] = dose: 100.0 mg/kg/injection, schedule: Q04DX003 (ip), vehicle: saline
[16] = dose: 100.0 mg/kg/injection, schedule: Q01DX009 (ip), vehicle: saline with Tween-80
[17] = dose: 100.0 mg/kg/injection, schedule: Q01DX009 (ip), vehicle: Klucel (hydroxypropylcellulose) (HPC)
[18] = dose: 200.0 mg/kg/injection, schedule: Q01DX009 (ip), vehicle: Klucel (hydroxypropylcellulose) (HPC)
[19] = dose: 400.0 mg/kg/injection, schedule: Q01DX009 (ip), vehicle: Klucel (hydroxypropylcellulose) (HPC)

CC(C)(C)C(C(=O)O)C(=O)O
T/C (dose: 50.0 mg/kg/injection, schedule: Q04DX002 (ip), vehicle: saline): 98 % of control | T/C (dose: 100.0 mg/kg/injection, schedule: Q04DX002 (ip), vehicle: saline): 98 % of control | T/C (dose: 200.0 mg/kg/injection, schedule: Q04DX002 (ip), vehicle: saline): 92 % of control

CC(=O)N=c1cc(-c2ccc(Cl)cc2)ss1
T/C [1]: 90 % of control | T/C [2]: 95 % of control | T/C [3]: 98 % of control

CNc1nc(SCc2ccccc2)c2ncn(C3OC(CO)C(O)C3O)c2n1 (stereo not drawn)
T/C [4]: 106 % of control | T/C [5]: 95 % of control | T/C [6]: 104 % of control

CCCCCCCCCCCCNC(=O)c1cc[n+](C)cc1
T/C [7]: 103 % of control and 88 % of control and 93 % of control | T/C [8]: 99 % of control and 87 % of control and 91 % of control | T/C [9]: 93 % of control and 91 % of control and 88 % of control

Nc1nc(SCC(=O)c2ccccc2)c2[nH]cnc2n1
T/C (dose: 117.0 mg/kg/injection, schedule: Q01DX009 (ip), vehicle: saline with Tween-80): 153 % of control | T/C (dose: 176.0 mg/kg/injection, schedule: Q01DX009 (ip), vehicle: saline with Tween-80): 151 % of control | T/C [10]: 104 % of control | T/C (dose: 264.0 mg/kg/injection, schedule: Q01DX009 (ip), vehicle: saline with Tween-80): 156 % of control | T/C [11]: 152 % of control

CC1CCc2cc3c(cc2C1)S(=O)(=O)c1ccccc1-3 (stereo not drawn)
T/C [12]: 96 % of control | T/C [13]: 86 % of control | T/C [14]: 86 % of control

OC1C(OCc2ccccc2)OC(COCc2ccccc2)C(OC2OC(COCc3ccccc3)C(OCc3ccccc3)C(OCc3ccccc3)C2OCc2ccccc2)C1OCc1ccccc1 (stereo not drawn)
T/C (dose: 200.0 mg/kg/injection, schedule: Q01DX009 (ip), vehicle: alcohol): 94 % of control | T/C (dose: 400.0 mg/kg/injection, schedule: Q01DX009 (ip), vehicle: alcohol): 86 % of control

CN(C)/N=N/c1nc(CCCc2ccccc2)[nH]c1C(N)=O
T/C [1]: 98 % of control | T/C [2]: 103 % of control | T/C [3]: 110 % of control

CC/C=C(CC)/C(=C/CC)CC
T/C [12]: 97 % of control | T/C (dose: 100.0 mg/kg/injection, schedule: Q01DX009 (ip), vehicle: saline): 98 % of control | T/C [13]: 105 % of control | T/C (dose: 200.0 mg/kg/injection, schedule: Q01DX009 (ip), vehicle: saline): 96 % of control | T/C [14]: 102 % of control

COCCN=C(NCCOC)c1ccc(Nc2ncnc3nc[nH]c23)cc1
T/C [9]: 102 % of control | T/C [15]: 95 % of control

COc1ccc(N2CCN(c3c4c(nc5ccccc35)CCCCC4)CC2)cc1
T/C [12]: 95 % of control | T/C [13]: 106 % of control | T/C [14]: 101 % of control

O=C(C1CCC2c3ccccc3CCC2C1C(=O)N1CCCCC1)N1CCCCC1 (stereo not drawn)
T/C [4]: 103 % of control | T/C [5]: 101 % of control | T/C [6]: 108 % of control

CC(=O)c1c(O)c(Br)c(C)oc1=O (tested in a mixture with another compound)
T/C (dose: 6.25 mg/kg/injection, schedule: Q01DX009 (ip), vehicle: saline with Tween-80): 89 % of control | T/C (dose: 12.5 mg/kg/injection, schedule: Q01DX009 (ip), vehicle: saline with Tween-80): 100 % of control | T/C (dose: 25.0 mg/kg/injection, schedule: Q01DX009 (ip), vehicle: saline with Tween-80): 93 % of control

Cn1c(=O)c2n[se]nc2n(C)c1=O
T/C (dose: 3.12 mg/kg/injection, schedule: Q01DX009 (ip), vehicle: Klucel (hydroxypropylcellulose) (HPC)): 91 % of control | T/C (dose: 3.12 mg/kg/injection, schedule: Q04DX002 (ip), vehicle: Klucel (hydroxypropylcellulose) (HPC)): 102 % of control | T/C (dose: 6.25 mg/kg/injection, schedule: Q01DX009 (ip), vehicle: Klucel (hydroxypropylcellulose) (HPC)): 94 % of control | T/C (dose: 6.25 mg/kg/injection, schedule: Q04DX002 (ip), vehicle: Klucel (hydroxypropylcellulose) (HPC)): 105 % of control | T/C (dose: 12.5 mg/kg/injection, schedule: Q04DX002 (ip), vehicle: Klucel (hydroxypropylcellulose) (HPC)): 108 % of control and 111 % of control | T/C (dose: 25.0 mg/kg/injection, schedule: Q04DX002 (ip), vehicle: Klucel (hydroxypropylcellulose) (HPC)): 108 % of control

COc1ccc(-n2c(=O)c(N=Nc3ccccc3)c(O)n(-c3ccccc3OC)c2=S)cc1
T/C (dose: 12.5 mg/kg/injection, schedule: Q01DX001 (ip), vehicle: saline with Tween-80): 101 % of control | T/C (dose: 25.0 mg/kg/injection, schedule: Q01DX001 (ip), vehicle: saline with Tween-80): 90 % of control | T/C (dose: 50.0 mg/kg/injection, schedule: Q01DX001 (ip), vehicle: saline with Tween-80): 94 % of control

CCCCCCCN(CCCCCCC)CCC(=O)c1ccc2cc(Br)c3ccccc3c2c1
T/C (dose: 55.0 mg/kg/injection, schedule: Q01DX Z (ip), vehicle: methylcellulose (MC)): 97 % of control | T/C (dose: 83.0 mg/kg/injection, schedule: Q01DX Z (ip), vehicle: methylcellulose (MC)): 86 % of control | T/C (dose: 125.0 mg/kg/injection, schedule: Q01DX Z (ip), vehicle: methylcellulose (MC)): 97 % of control

C=CC1(O)CCCC1
T/C (dose: 50.0 mg/kg/injection, schedule: Q01DX009 (ip), vehicle: saline with Tween-80): 100 % of control | T/C [16]: 107 % of control | T/C [10]: 96 % of control

CCCCCCN(CCCCCC)C(F)(F)C(=O)Nc1ccc(S(=O)(=O)c2ccc(NC(=O)C(F)(F)N(CCCCCC)CCCCCC)cc2)cc1
T/C (dose: 12.5 mg/kg/injection, schedule: Q01DX001 (ip), vehicle: saline): 105 % of control | T/C (dose: 25.0 mg/kg/injection, schedule: Q01DX001 (ip), vehicle: saline): 100 % of control | T/C (dose: 50.0 mg/kg/injection, schedule: Q01DX001 (ip), vehicle: saline): 107 % of control

O=C(Nc1ccc(Cl)cc1)C(Cl)Cl
T/C [17]: 98 % of control | T/C (dose: 100.0 mg/kg/injection, schedule: Q04DX003 (ip), vehicle: Klucel (hydroxypropylcellulose) (HPC)): 100 % of control | T/C [18]: 98 % of control | T/C (dose: 200.0 mg/kg/injection, schedule: Q04DX003 (ip), vehicle: Klucel (hydroxypropylcellulose) (HPC)): 100 % of control | T/C [19]: 102 % of control | T/C (dose: 400.0 mg/kg/injection, schedule: Q04DX003 (ip), vehicle: Klucel (hydroxypropylcellulose) (HPC)): 102 % of control

O=C(Oc1cc(Cl)c(S(=O)(=O)F)cc1Cl)c1ccccc1Cl
T/C (dose: 100.0 mg/kg/injection, schedule: Q04DX003 (ip), vehicle: carboxymethylcellulose (CMC)): 88 % of control | T/C (dose: 200.0 mg/kg/injection, schedule: Q04DX003 (ip), vehicle: carboxymethylcellulose (CMC)): 90 % of control | T/C (dose: 400.0 mg/kg/injection, schedule: Q04DX003 (ip), vehicle: carboxymethylcellulose (CMC)): 88 % of control

Cc1c(NC(=O)Nc2ccc(F)c([N+](=O)[O-])c2)c(=O)n(-c2ccccc2)n1C
T/C [17]: 102 % of control | T/C [18]: 96 % of control | T/C [19]: 103 % of control

Oc1ccccc1C=Nc1ccccc1S.[Co]
T/C (dose: 100.0 mg/kg/injection, schedule: Q01DX001 (ip), vehicle: other): 105 % of control | T/C (dose: 200.0 mg/kg/injection, schedule: Q01DX001 (ip), vehicle: other): 100 % of control | T/C (dose: 400.0 mg/kg/injection, schedule: Q01DX001 (ip), vehicle: other): 105 % of control

CC(=O)OC1C(OC(C)=O)C(OS(=O)(=O)c2ccc(C)cc2)C(OC(C)=O)C(OS(=O)(=O)c2ccc(C)cc2)C1OC(C)=O (stereo not drawn)
T/C [1]: 97 % of control | T/C [2]: 92 % of control | T/C [3]: 95 % of control

c1ccc(Pc2ccccc2)cc1
T/C (dose: 100.0 mg/kg/injection, schedule: Q01DX001 (ip), vehicle: saline with Tween-80): 103 % of control | T/C [16]: 93 % of control | T/C (dose: 200.0 mg/kg/injection, schedule: Q01DX001 (ip), vehicle: saline with Tween-80): 105 % of control | T/C [10]: 98 % of control | T/C (dose: 400.0 mg/kg/injection, schedule: Q01DX001 (ip), vehicle: saline with Tween-80): 104 % of control

CCOC(=O)NC1=C(NCCCl)C(=O)C(NC(=O)OCC)=C(NCCCl)C1=O
T/C (dose: 6.25 mg/kg/injection, schedule: Q04DX003 (ip), vehicle: saline): 92 % of control | T/C [7]: 95 % of control | T/C [8]: 106 % of control | T/C [9]: 104 % of control | T/C [15]: 90 % of control

O=C(CCN1CC=C(c2ccccc2)CC1)NCc1ccccc1
T/C [16]: 95 % of control | T/C [1]: 98 % of control | T/C [10]: 93 % of control | T/C [2]: 100 % of control | T/C [11]: 95 % of control | T/C [3]: 100 % of control
